Activity calls are given as the source filed them. No cut-off for these calls is given here.
Experiments:
[1] = species: Mus musculus; experiment: Inhibition of LPS-induced NFkappaB nuclear translocation in mouse BV2 cells pre-incubated before LPS stimulation by immunostaining based confocal laser microscopy; type: cell-based
[2] = test system: BV-2; experiment: Inhibition of LPS-induced IL6 production in mouse BV2 cells at 20 uM pre-incubated before LPS stimulation by ELISA; type: functional
[3] = test system: BV-2; experiment: Inhibition of LPS-induced IL6 production in mouse BV2 cells at 10 uM pre-incubated before LPS stimulation by ELISA; type: functional
[4] = test system: BV-2; experiment: Inhibition of LPS-induced MMP9 production production in mouse BV2 cells assessed as MMP9 protein level pre-incubated before LPS stimulation by gelatin zymography (reference value: 105.113%); type: functional; set-up: scale not given: the % may be the effect or the level left
[5] = test system: BV-2; experiment: Cytotoxicity in mouse BV2 cells assessed as reduction in cell viability incubated for 48 hrs by MTT assay; type: cell-based; conditions: BV-2, 48 h
[6] = test system: BV-2; experiment: Inhibition of LPS-induced IL6 production in mouse BV2 cells assessed as IL6 level at 10 uM pre-incubated before LPS stimulation by ELISA (reference value: 146.75%); type: functional; set-up: scale not given: the % may be the effect or the level left
[7] = Cytotoxicity in mouse BV2 cells assessed as cell viability at 5 uM incubated for 48 hrs by MTT assay (reference value: 100%); type: cell-based, BV-2; conditions: read-out: Activity
[8] = Cytotoxicity in mouse BV2 cells assessed as cell viability at 60 uM incubated for 48 hrs by MTT assay (reference value: 100%); type: cell-based, BV-2; conditions: read-out: Activity
[9] = test system: BV-2; experiment: Inhibition of LPS-induced TNFalpha production in mouse BV2 cells assessed as TNFalpha level at 10 uM pre-incubated before LPS stimulation by ELISA (reference value: 142.71%); type: functional; set-up: scale not given: the % may be the effect or the level left
[10] = Cytotoxicity in mouse BV2 cells assessed as cell viability at 10 uM incubated for 48 hrs by MTT assay (reference value: 100%); type: cell-based, BV-2; conditions: read-out: Activity
[11] = Cytotoxicity in mouse BV2 cells assessed as cell viability at 15 uM incubated for 48 hrs by MTT assay (reference value: 100%); type: cell-based, BV-2; conditions: read-out: Activity
[12] = Cytotoxicity in mouse BV2 cells assessed as cell viability at 80 uM incubated for 48 hrs by MTT assay (reference value: 100%); type: cell-based, BV-2; conditions: read-out: Activity
[13] = test system: BV-2; experiment: Suppression of LPS-induced morphological changes in mouse BV2 cells at 10 uM pre-incubated before LPS stimulation by phase contrast microscopy; type: functional, cell-based
[14] = biological target: Transcription factor Jun (Mus musculus) (UniProt P05627); experiment: Inhibition of LPS-induced AP1 nuclear translocation in mouse BV2 cells pre-incubated before LPS stimulation by immunostaining based confocal laser microscopy; type: cell-based
Transcription factor Jun (Mus musculus), sequence (P05627 whole entry): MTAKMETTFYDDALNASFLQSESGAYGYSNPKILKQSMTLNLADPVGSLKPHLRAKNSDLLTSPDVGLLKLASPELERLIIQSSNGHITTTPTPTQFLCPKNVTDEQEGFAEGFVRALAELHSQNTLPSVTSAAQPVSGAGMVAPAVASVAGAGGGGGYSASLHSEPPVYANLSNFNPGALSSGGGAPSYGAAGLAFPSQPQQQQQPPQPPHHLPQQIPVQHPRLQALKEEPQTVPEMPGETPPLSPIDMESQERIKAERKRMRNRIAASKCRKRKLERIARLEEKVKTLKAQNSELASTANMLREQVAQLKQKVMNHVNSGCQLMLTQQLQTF

[15] = Cytotoxicity in mouse BV2 cells assessed as cell viability at 100 uM incubated for 48 hrs by MTT assay (reference value: 100%); type: cell-based, BV-2; conditions: read-out: Activity
[16] = test system: BV-2; experiment: Inhibition of LPS-induced IL6 production in mouse BV2 cells assessed as IL6 level at 20 uM pre-incubated before LPS stimulation by ELISA (reference value: 146.75%); type: functional; set-up: scale not given: the % may be the effect or the level left
[17] = test system: Mus musculus; experiment: Analgesic activity in Swiss albino mouse model of acetic acid induced writhing assessed as inhibition of pain response at 10 mg/kg, ip dosed 30 mins before acetic acid injection; type: functional
[18] = Cytotoxicity in mouse BV2 cells assessed as cell viability at 1 uM incubated for 48 hrs by MTT assay (reference value: 100%); type: cell-based, BV-2; conditions: read-out: Activity
[19] = test system: Mus musculus; experiment: Toxicity in Swiss albino mouse model of acetic acid induced writhing up to 2000 mg/kg, ip dosed 30 mins before acetic acid injection; type: organism-based; conditions: in vivo, 0.5 h
[20] = test system: BV-2; experiment: Suppression of LPS-induced morphological changes in mouse BV2 cells at 5 uM pre-incubated before LPS stimulation by phase contrast microscopy; type: functional, cell-based
[21] = biological target: T1, Prostaglandin G/H synthase 2 (Homo sapiens) (UniProt P35354); experiment: Inhibition of COX2 (unknown origin) by immunoassay
T1 sequence (whole entry): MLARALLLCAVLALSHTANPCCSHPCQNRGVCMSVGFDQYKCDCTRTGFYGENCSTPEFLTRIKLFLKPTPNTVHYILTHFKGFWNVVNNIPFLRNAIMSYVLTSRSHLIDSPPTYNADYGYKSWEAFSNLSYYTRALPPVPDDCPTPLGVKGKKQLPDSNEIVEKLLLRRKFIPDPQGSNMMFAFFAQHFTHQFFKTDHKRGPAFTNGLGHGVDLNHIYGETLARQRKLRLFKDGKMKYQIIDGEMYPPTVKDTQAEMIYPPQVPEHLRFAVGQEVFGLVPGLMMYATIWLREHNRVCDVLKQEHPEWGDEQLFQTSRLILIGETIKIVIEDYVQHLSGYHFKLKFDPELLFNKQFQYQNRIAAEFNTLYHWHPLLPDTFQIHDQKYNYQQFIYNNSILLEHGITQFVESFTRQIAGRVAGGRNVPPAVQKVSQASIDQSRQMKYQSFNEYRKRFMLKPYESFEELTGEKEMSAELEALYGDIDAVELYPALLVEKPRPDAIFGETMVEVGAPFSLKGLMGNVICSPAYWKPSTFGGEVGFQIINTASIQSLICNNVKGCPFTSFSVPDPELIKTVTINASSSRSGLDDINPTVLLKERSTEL

[22] = test system: BV-2; experiment: Inhibition of LPS-induced MMP2 production production in mouse BV2 cells pre-incubated before LPS stimulation by gelatin zymography; type: functional, cell-based
[23] = test system: BV-2; experiment: Inhibition of LPS-induced TNFalpha production in mouse BV2 cells at 20 uM pre-incubated before LPS stimulation by ELISA; type: functional
[24] = Cytotoxicity in mouse BV2 cells assessed as cell viability at 0.5 uM incubated for 48 hrs by MTT assay (reference value: 100%); type: cell-based, BV-2; conditions: read-out: Activity
[25] = test system: BV-2; experiment: Inhibition of LPS-induced MMP9 production production in mouse BV2 cells pre-incubated before LPS stimulation by gelatin zymography; type: functional, cell-based
[26] = test system: BV-2; experiment: Inhibition of LPS-induced TNFalpha production in mouse BV2 cells at 10 uM pre-incubated before LPS stimulation by ELISA; type: functional
[27] = Cytotoxicity in mouse BV2 cells assessed as cell viability at 40 uM incubated for 48 hrs by MTT assay (reference value: 100%); type: cell-based, BV-2; conditions: read-out: Activity
[28] = test system: BV-2; experiment: Inhibition of LPS-induced nitric oxide production in mouse BV2 cells assessed as nitric oxide level at 20 uM pre-incubated before LPS stimulation by Griess reagent based assay (reference value: 121.09%); type: functional; set-up: scale not given: the % may be the effect or the level left
[29] = test system: BV-2; experiment: Inhibition of LPS-induced TNFalpha production in mouse BV2 cells assessed as TNFalpha level at 20 uM pre-incubated before LPS stimulation by ELISA (reference value: 142.71%); type: functional; set-up: scale not given: the % may be the effect or the level left
[30] = Cytotoxicity in mouse BV2 cells assessed as cell viability at 20 uM incubated for 48 hrs by MTT assay (reference value: 100%); type: cell-based, BV-2; conditions: read-out: Activity
[31] = test system: BV-2; experiment: Inhibition of LPS-induced nitric oxide production in mouse BV2 cells assessed as nitric oxide level at 10 uM pre-incubated before LPS stimulation by Griess reagent based assay (reference value: 121.09%); type: functional; set-up: scale not given: the % may be the effect or the level left
[32] = test system: BV-2; experiment: Inhibition of LPS-induced MMP2 production production in mouse BV2 cells assessed as MMP2 protein level pre-incubated before LPS stimulation by gelatin zymography (reference value: 105.071%); type: functional; set-up: scale not given: the % may be the effect or the level left

inhibition [14]: Active
inhibition [21]: inactive
SMILES: O=C1COCCN1c1ccc(/N=C\c2cn(C(=O)c3ccc(Cl)cc3)c3ccccc23)cc1
inhibition [1]: Active
inhibition at 20 µM [2]: 52.9%
inhibition at 10 µM [3]: 47.9%
Activity [4]: 89.261%
IC50 [5]: > 100 µM
Activity [6]: 76.51%
viability at 48 h, 5 µM [7]: 93.6%
viability at 48 h, 60 µM [8]: 84.2%
Activity [9]: 56.34%
viability at 48 h, 10 µM [10]: 90.1%
viability at 48 h, 15 µM [11]: 105%
viability at 48 h, 80 µM [12]: 90.3%
Activity [13]: Active
viability at 48 h, 100 µM [15]: 80.5%
Activity [16]: 69.12%
inhibition in vivo at 10 mg/kg [17]: 74.9%
viability at 48 h, 1 µM [18]: 97.6%
Activity [19]: Non-Toxic
Activity [20]: Active
inhibition [22]: Active
inhibition at 20 µM [23]: 70.9%
viability at 48 h, 0.5 µM [24]: 95.2%
inhibition [25]: Active
inhibition at 10 µM [26]: 60.5%
viability at 48 h, 40 µM [27]: 96.6%
Activity [28]: 100.905%
Activity [29]: 41.58%
viability at 48 h, 20 µM [30]: 99%
Activity [31]: 100.905%
Activity [32]: 84.884%

— ChEMBL document CHEMBL4130445, “TNF-α and IL-6 inhibitors: Conjugates of N-substituted indole and aminophenylmorpholin-3-one as anti-inflammatory agents” (Eur J Med Chem, 2017)
